From patent publication US20240197699A1, “BE[…] FOR USE IN THERAPY” (MOLECULAR RESEARCH PHARMACT S.R.L., priority 2021, published 2024)

Legend:
NSC-34 cells = assay: Viability of NSC-34 neuronal cells under high glucose (hyperglycemia-induced apoptosis); format: cell-based; settings: pre-treatment 25 nM, then 100 mM glucose
Protocol: A high glucose level is the cause of neuronal apoptosis leading to diabetic neuropathy. To examine whether SS-SRGR-(+7) can protect neurons from the hyperglycemic condition, neuronal cells in different glucose concentrations (0, 25, 50, 100 mM) were grown. […] NSC-34 neurons were then pre-treated with or without SS-SRGR-(+7)(25 nM) prior to incubation with 100 mM glucose.

AdipoR1 = molecular target: T1, AdipoR1 (Mus musculus, UniProt Q91VH1); assay: AMPK activation by the compound in HT22 cells under AdipoR1 knock-down (siAdipoR1); format: cell-based; settings: HT22 cells transfected with siAdipoR1, compound 25 nM, 30 minutes
T1 construct: siAdipoR1, siAdipoR2 were prepared in DMEM to break down the expression of AdipoR1 and AdipoR2, respectively; endogenous in cells; host or cells: HT22 mouse neuronal cells
T1 sequence (Q91VH1 1-375): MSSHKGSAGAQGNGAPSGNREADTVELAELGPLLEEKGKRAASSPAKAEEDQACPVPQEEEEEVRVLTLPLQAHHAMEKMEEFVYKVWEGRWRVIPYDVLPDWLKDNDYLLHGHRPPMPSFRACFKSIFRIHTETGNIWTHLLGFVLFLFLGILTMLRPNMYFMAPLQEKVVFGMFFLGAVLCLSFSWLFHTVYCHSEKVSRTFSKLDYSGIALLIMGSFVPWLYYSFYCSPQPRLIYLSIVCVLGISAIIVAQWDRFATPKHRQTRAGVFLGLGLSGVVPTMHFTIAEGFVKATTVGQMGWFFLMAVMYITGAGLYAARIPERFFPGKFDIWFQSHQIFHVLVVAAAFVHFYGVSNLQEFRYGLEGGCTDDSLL
Source text: A rabbit adiponectin anti-receptor 1 polyclonal antibody (AdipoR1)(Abcam, Cambridge, MA, USA), a rabbit adiponectin anti-receptor 2 polyclonal antibody (AdipoR2) (Boster Biological Technology, USA), an anti-phospho-AMPK (pAMPK) rabbit polyclonal antibody (Cell Signaling Technology, Ltd.), an anti-AMPK rabbit polyclonal antibody (Cell Signaling Technology, Ltd.) and an HRP conjugated mouse monoclonal anti-§ (beta)-actin antibody (Cell Signaling Technology, Ltd.) were used as primary antibodies after being suitably diluted. An HRP conjugated goat anti-rabbit IgG antibody (Dako, Glostrup, Denmark) was used as secondary antibody.
(§1) Under conditions of 5% CO2 at 37° C., mouse neuronal cells (HT22) are maintained and expanded in a Dulbecco-modified high-glucose Eagle medium (DMEM, GIBCO, Invitrogen, Life Technologies Hong Kong Ltd.), containing 10% fetal bovine serum (FBS, HiClone, Cytiva Co., Ltd.) and 1% v/v penicillin/streptomycin (Life Technologies Hong Kong Ltd.).
SiRNA scramble (non-targeting RNA), siAdipoR1 and siAdipoR2 were purchased from Santa Cruz Biotechnology. siAdipoR1, siAdipoR2 were prepared in DMEM to break down the expression of AdipoR1 and AdipoR2, respectively. […]
The extraction of each soluble fraction and the quantification of the proteins in each soluble fraction by western blot analysis were performed according to procedures similar to section 1.4 of Experiment 1.

[1] = test system: AMPK, the downstream intracellular mediator of adiponectin receptors; assay: Concentration-dependent activation of AMPK in HT22 neuronal cells (western blot, pAMPK/AMPK); format: cell-based, mouse; settings: HT22 cells, 0, 10, 25 nM, 30 minutes, serum-free DMEM
Protocol: A rabbit anti-phospho-AMPK polyclonal antibody (pAMPK) (Cell Signaling Technology, Ltd.), a rabbit anti-AMPK polyclonal antibody (Cell Signaling Technology, Ltd.) and an HRP conjugated mouse monoclonal anti-β-actin antibody (Cell Signaling Technology, Ltd.) were used as primary antibodies after being suitably diluted. An HRP-labeled rabbit IgG goat antibody (Dako, Glostrup, Denmark) was used as a secondary antibody.
as §1, with “were” for “are”
The compound was dissolved in DMSO (Sigmaldrich Co Ltd.) at a concentration of 10 mM as a stock. […]
Each cell sample was homogenized in ice-cold lysis buffer (Cell Signaling Technology, USA), containing a cocktail of protease inhibitors, by ultrasonic homogenizer before being centrifuged at 12,000×g, 4° C. for 15 min. […] The protein concentration of each fraction was measured using the BioRad Protein Assay reagent (Bio-Rad Laboratories, Inc.). […] The densitometric analysis of the bands detected by the chemiluminescent reaction was quantified by the Image J software (NIH: National Institutes of Health). […]

CC1C2Cc3ccc(O)cc3C1(C)CCN2CCC(C(=O)N(C)C)(c1ccccc1)c1ccccc1 (stereo not drawn) [SS-SRGR-(+7), 4-(8-hydroxy-6,11-dimethyl-1,4,5,6-tetrahydro-2,6-methane-3-benzazocin-3(2H)-yl)-N,N-dimethyl-2,2-diphenylbutanamide]
Cell viability of pretreated NSC34 cells versus vehicle-pretreated NSC34 (NSC-34 cells): significantly higher
SS-SRGR-(+7)-induced AMPK activation under Adipo-R1 knock-down compared to siCtrl-transfected HT22 cells (AdipoR1): significantly reduced
amounts of pAMPK proteins (pAMPK/AMPK ratio, densitometry) [1]: increase significantly in a concentration-dependent manner
